Laboratory results reported in patent US20040171659A1, “Methods for treating diabetes” (priority 2002, published 2004).

Experiments:
[1] = tested on: rat insulinoma cells; details: cited from earlier work
[2] = tested on: monocyte migration; details: Chen 2001; cited from earlier work
[3] = molecular target: T1, p38 MAPK (Homo sapiens, UniProt Q16539); test: phosphorylation assay of p38 MAPK activity (see Kumar); type: biochemical; details: assay similar to the phosphorylation assay (Kumar); read-out: p38 MAPK activity, relative IC50 value
T1 construct: made in house; host or cells: cells (e.g., HeLa) transfected with kinase DNA, stimulated, kinase immunoprecipitated from lysate
Protocol: After immunoprecipitation of cell lysates, equal aliquots of immune complexes of the kinases are pre-incubated for an adequate time with a specific concentration of the potential inhibitor followed by addition of kinase substrate buffer mix containing labeled ATP and GST-ATF2 or MBP. […] Phosphorylated substrate is resolved through SDS-PAGE and visualized and quantitated in a phosphorimager. […] Res. Commun.

T1 sequence (Q16539 whole entry): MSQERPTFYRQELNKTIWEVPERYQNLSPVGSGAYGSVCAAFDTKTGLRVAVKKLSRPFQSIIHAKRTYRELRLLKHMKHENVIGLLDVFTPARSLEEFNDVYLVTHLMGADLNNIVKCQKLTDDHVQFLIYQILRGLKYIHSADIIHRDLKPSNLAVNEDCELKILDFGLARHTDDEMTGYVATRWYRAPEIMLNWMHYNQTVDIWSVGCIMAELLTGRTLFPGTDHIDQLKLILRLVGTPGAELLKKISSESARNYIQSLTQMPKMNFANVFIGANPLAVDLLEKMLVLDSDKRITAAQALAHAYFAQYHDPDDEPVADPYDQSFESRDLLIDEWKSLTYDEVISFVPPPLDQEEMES

| SMILES | p38-dependent enhancement of cytokines expression by hsp70 [1] | Monocyte migration [2] | IC50 [3] |
| --- | --- | --- | --- |
| C[S+]([O-])c1ccc(-c2nc(-c3ccncc3)c(-c3ccc(F)cc3)[nH]2)cc1 (stereo not drawn) [SB203580] | blocks this activity | blockade |  |
| COc1cc2c(cc1C(=O)N1CC(C)N(Cc3ccc(F)cc3)CC1C)c(C(=O)C(=O)N(C)C)cn2C (stereo not drawn) [compound 15] |  |  | < 5 nM |
